Assay results: US9532988B2, “Pharmaceutical composition comprising a TRPA1 antagonist and an analgesic agent” (GLENMARK PHARMACEUTICALS S.A., priority 2013, dated 2017)
Counter-ions that a name gives are not always drawn.

Columns and labels:
[1] = system: Monosodium Iodo Acetate (MIA)-osteoarthritis induced weight bearing deficit in male SD rats; experiment: MIA-osteoarthritis induced weight bearing deficit (incapacitance meter); format: in vivo, rat (Sprague-Dawley); settings: Compound I 1 mg/kg p.o. alone; 0.5-4 h post-dose; Example 3, Table 5, FIG. 5
Procedure: After recording basal weight borne by both hind limbs (naïve) using the incapacitance meter (IITC Inc), rats were briefly anaesthetized with 2% isoflurane and O2 mixture and given intraarticular (i.a.) injection of MIA (5 mg per rat in […]) through the intrapatellar ligament of the left knee (Combe et al., 2004). MIA was dissolved in 0.9% sterile saline and administered using a 26½ gauge needle. Contralateral knees were injected intra-articularly with 50 μl of 0.9% sterile saline. Weight bearing deficit in ipsilateral paw was assessed 20 h post MIA injection by measuring weight borne by both hind limbs.
On the day of the experiment (20 h after MIA injection), rats were evaluated for pre-dose weight bearing deficit to assess the effect of MIA. After regrouping the rats after randomization, the pre- & post-dose weight bearing deficit, was assessed for both hind limbs. Rats were orally dosed with vehicle, naproxen, compound I potassium salt and combination (Naproxen+Compound I—simultaneously). The effect of compound I, naproxen and their combination, in MIA-osteoarthritis induced weight bearing deficit in male SD rats, was evaluated using Incapacitance meter (IITC Inc.) fitted with a perspex chamber designed so that each hind paw rat rests on separate transducer pads to record animal's weight on each paw. […] The % reversal of weight bearing deficit was calculated as per standard procedure. […]

[2] = system: Streptozotocin (STZ)-induced diabetic peripheral neuropathic hyperalgesia in male SD rats; experiment: Streptozotocin-induced diabetic peripheral neuropathic hyperalgesia; format: in vivo, rat (Sprague-Dawley)
Procedure: Streptozotocin (STZ)-induced neuropathic hyperalgesia in rats is a model to screen potential therapeutics for diabetic painful neuropathy in human patients. Streptozotocin was dissolved in freshly prepared cold citrate buffer (0.1 M, pH—4.4). Diabetes was induced in overnight fasted male SD rats (weighing 250-300 g) by a single intraperitoneal injection of Streptozotocin (Sigma, 55 mg/kg, i.p). […] On the day of the experiment (13th day after STZ injection) rats were assessed for mechanical hyperalgesia using Randall-Sellito paw pressure analgesymeter. Animals were weighed and grouped as described in Table 9.
Rats were orally dosed with vehicle, duloxetine hydrochloride, Compound I potassium salt and combination (Duloxetine+Compound I).
Streptozotocin (STZ)-induced neuropathic hyperalgesia in rats is a model to screen potential therapeutics for diabetic painful neuropathy in human patients. Streptozotocin was dissolved in freshly prepared cold citrate buffer (0.1 M, pH —4.4). Diabetes was induced in overnight fasted male Sprague Dawley rats by a single intraperitoneal injection of Streptozotocin (Sigma, 55 mg/kg, i.p). […] On the day of the experiment (13th day after STZ injection) rats were assessed for mechanical hyperalgesia using Randall-Sellito paw pressure analgesymeter.
Rats were orally dosed with vehicle, different doses of duloxetine hydrochloride, Compound II disodium salt and combinations (duloxetine+Compound II—simultaneously). The post-dose paw withdrawal thresholds were measured at 1, 2 & 4 h after oral administration. […] Animals were weighed and grouped as described in Table 16.
Rats were orally dosed with vehicle, different doses of duloxetine hydrochloride, Compound III disodium salt and combinations (duloxetine+Compound III—simultaneously). […] Animals were weighed and grouped as described in Table 21.

[3] = system: CCI-induced neuropathic hyperalgesia in male SD rats; experiment: Chronic constriction injury (CCI)-induced mechanical hyperalgesia; format: in vivo, rat (Sprague-Dawley); settings: 0.5-4 h post-dose, Example 8, Table 11, FIG. 12
Procedure: The objective of this experiment was to study the combinational effect of Compound I and pregabalin in CCI-induced neuropathic hyperalgesia in male SD rats. Male SD rats weighing 180-220 g were grouped according to Table 11. Rats were anesthetized using ketamine/xylazine (40/5 mg/kg, i.p.) and the left sciatic nerve was exposed at mid-thigh level through a small incision. Four loose ligatures of 4-0 chromic cat gut at 1 mm space were placed around the sciatic nerve after the bifurcation of common sciatic nerve. After 6-7 days, mechanical hyperalgesia was assessed by measuring hind paw withdrawal thresholds to an increasing pressure (g) stimulus, using the Randall-Sellitto analgesymeter (Ugo Basile, Italy), fitted with a wedge-shaped probe.
Rats were orally dosed with vehicle, pregabalin, Compound I potassium salt and combination (Pregabalin+Compound I).

[4] = system: Freund's Complete Adjuvant (FCA)-induced inflammatory mechanical hyperalgesia in male SD rats; experiment: FCA-induced inflammatory mechanical hyperalgesia (Randall-Sellitto paw pressure);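 note: left hind paw withdrawal threshold (g) to rising pressure on an analgesymeter, FCA injected intraplantar 24 h earlier, thresholds taken before and 0.5, 1, 2 and 4 h after oral dosing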
Procedure: Materials: FCA containing 1 mg/ml of heat killed and dried Mycobacterium tuberculosis (H37RA strain) emulsified in mineral oil and mannide mono-oleate; Male SD rats weighing 170-220 g; Paw Pressure Analgesymeter (37215, Ugo Basile, Comerio, Italy); Compound I potassium; and Diclofenac sodium
Naïve withdrawal thresholds of the left hind paw to an increasing pressure (g) stimulus were measured in rats using the analgesymeter. FCA was injected (30 μl) into the plantar region of left paw of rats to induce the inflammatory hyperalgesia. Mechanical hyperalgesia (24 h after FCA injection) was assessed by measuring hind paw withdrawal thresholds.
The post-dose paw withdrawal thresholds were measured at 0.5, 1, 2 & 4 h after oral administration. The percentage (%) reversal of mechanical hyperalgesia was calculated as per standard procedure.
Naïve withdrawal thresholds of the left hind paw to an increasing pressure (g) stimulus were measured in rats using the analgesymeter. Freund's Complete Adjuvant (FCA) was injected (30 μl) into the plantar region of left paw of rats to induce the inflammatory hyperalgesia. Mechanical hyperalgesia (24 h after FCA injection) was assessed both pre- & post-dosing of drugs by measuring hind paw withdrawal thresholds. […] The post-dose paw withdrawal thresholds were measured at 0.5, 1, 2 & 4 h after oral administration. The % reversal of mechanical hyperalgesia was calculated.
Naïve withdrawal thresholds of the left hind paw to an increasing pressure (g) stimulus were measured in rats using the analgesymeter.

[5] = system: Spinal nerve ligation (SNL) injury-induced neuropathic hyperalgesia in male SD rats; experiment: Spinal nerve ligation (SNL)-induced mechanical hyperalgesia; format: in vivo, rat (Sprague-Dawley); settings: 0.5-4 h post-dose, Example 15, Table 18, FIG. 20
Procedure: Spinal nerve ligation (SNL) injury in rats induces neuropathic mechanical hyperalgesia in this Chung's model. Rats were anesthetized using ketamine/xylazine (40/5 mg/kg, i.p.) and a 2-3 cm longitudinal incision was made in the lumbar spinal region, 5-6 mm lateral to the midline and above the lower lumbar vertebrae and the rostral sacrum, exposing the paraspinal muscles on the left side. The paraspinal muscles were isolated using blunt-tipped scissors for exposing L6 transverse process. The L6 transverse process was cut with the help of blunt-tipped scissor to visualize the left L5 spinal nerves. The nerves were cleaned from adhering tissue and were tightly ligated using 7.0 silk sutures (EP 1.5, Pearsalls Ltd) (Somerset, UK). The wound was closed with muscle & skin sutures and Povidone-iodine solution was applied every day till complete healing. […] Mechanical hyperalgesia was assessed by measuring hind paw withdrawal to an increasing pressure (g) stimulus, using an analgesymeter (Ugo Basile, Italy) fitted with a wedge-shaped probe.
Mechanical hyperalgesia was assessed both pre- & post-dosing of drugs by measuring hind paw withdrawal thresholds. […] The post-dose paw withdrawal thresholds were measured at 0.5, 1, 2 & 4 h after oral administration. The % reversal of mechanical hyperalgesia was calculated as per standard procedure.

[6] = system: motor coordination in rotarod test in male SD rats; experiment: Motor coordination in rotarod test; format: in vivo, rat (Sprague-Dawley)
Procedure: FIG. 9 is a bar graph that represents effect of Compound I (3 mg/kg), thiocolchicoside (0.01 mg/kg) and their combination on motor coordination in rotarod test in male SD rats.
FIG. 19 is a bar graph that represents effect of combination of thiocolchicoside (0.01 mg/kg) and Compound II (0.13 mg/kg) and their combination on motor coordination in rotarod test in male SD rats.

[7] = system: FCA-induced thermal hyperalgesia in male SD rats; experiment: FCA-induced thermal hyperalgesia (Hargreaves apparatus); format: in vivo, rat (Sprague-Dawley); settings: diclofenac sodium 6 mg/kg p.o. alone; 0.5-4 h post-dose; Example 16, Table 19, FIG. 22
Procedure: The % reversal of mechanical/thermal hyperalgesia was calculated.

## Cn1c(=O)c2c(CC(=O)Nc3nc(-c4ccc(F)c(C(F)(F)F)c4F)cs3)csc2n(C)c1=O [Compound I, N-{4-[2,4-difluoro-3-(trifluoromethyl)phenyl]-1,3-thiazol-2-yl}-2-(1,3-dimethyl-2,4-dioxo-1,2,3,4-tetrahydrothieno[2,3-d]pyrimidin-5-yl)acetamide]
[1]
  maximal % reversal of weight bearing deficit: 8%
[2]; Compound I 1 mg/kg p.o. alone, Example 7, Table 10, FIG. 11
  maximal % reversal of hyperalgesia: 10%
[2]; Compound I 3 mg/kg p.o. alone, 0.5-4 h post-dose, Example 7, Table 9, FIG. 10
  maximal % reversal of hyperalgesia: 26%
[3]; Compound I 3 mg/kg p.o. alone
  maximal % reversal of hyperalgesia: 22%
[4]; Compound I 1 mg/kg p.o. alone, Example 1, Table 2, FIG. 2
  maximal % reversal of hyperalgesia: 15%
[4]; Compound I 1 mg/kg p.o. alone, Example 2, Table 4, FIG. 4
  maximal % reversal of hyperalgesia: 10%
[4]; Compound I 3 mg/kg p.o. alone, 0.5-4 h post-dose, Example 1, Table 1, FIG. 1
  maximal % reversal of hyperalgesia: 21%
[4]; Compound I 3 mg/kg p.o. alone, Example 2, Table 3, FIG. 3
  maximal % reversal of hyperalgesia: 25%
[4]; Compound I 3 mg/kg p.o. alone, Example 4, Table 6, FIG. 6
  maximal % reversal of hyperalgesia: 21%
[4]; Compound I 3 mg/kg p.o. alone, Example 5, Table 7, FIG. 7
  maximal % reversal of hyperalgesia: 25%
[4]; Compound I 3 mg/kg p.o. alone, Example 6, Table 8, FIG. 8
  maximal % reversal of hyperalgesia: 17%

## Cn1nc2c(c1CC(=O)N=c1scc(-c3ccc(F)c(C(F)(F)F)c3F)n1COP(=O)(O)O)c(=O)n(C)c(=O)n2C [Compound II, 4-(2,4-difluoro-3-(trifluoromethyl)phenyl)-2-((2-(2,5,7-trimethyl-4,6-dioxo-4,5,6,7-tetrahydro-2H-pyrazolo[3,4-d]pyrimidin-3-yl)acetyl)imino)thiazol-3 (2H)-yl)methyl dihydrogen phosphate]
[2]; Compound II 0.04 mg/kg p.o. alone, 1, 2 & 4 h post-dose, Example 13, Table 16, FIG. 17
  maximal % reversal of hyperalgesia: 13%
[5]; Compound II 0.13 mg/kg p.o. alone
  maximal % reversal of hyperalgesia: 18%
[6]; Compound II 0.13 mg/kg alone, n=8, Example 14, FIG. 19
  motor deficits (rotarod): did not produce any motor deficits
[4]; Compound II 0.13 mg/kg p.o. alone, Example 9, Table 12, FIG. 13
  maximal % reversal of hyperalgesia: 21%
[4]; Compound II 0.13 mg/kg p.o. alone, Example 10, Table 13, FIG. 14
  maximal % reversal of hyperalgesia: 22%
[4]; Compound II 0.13 mg/kg p.o. alone, Example 11, Table 14, FIG. 15
  maximal % reversal of hyperalgesia: 14%
[4]; Compound II 0.13 mg/kg p.o. alone, Example 12, Table 15, FIG. 16
  maximal % reversal of hyperalgesia: 22%
[4]; Compound II 0.13 mg/kg p.o. alone, Example 14, Table 17, FIG. 18
  maximal % reversal of hyperalgesia: 14%

## O=C(O)Cc1ccccc1Nc1c(Cl)cccc1Cl [diclofenac sodium]
[7]
  maximal % reversal of thermal hyperalgesia: 27%
[4]; diclofenac sodium 6 mg/kg p.o. alone, 0.5-4 h post-dose, Example 1, Table 1, FIG. 1
  maximal % reversal of hyperalgesia: 15%
[4]; diclofenac sodium 6 mg/kg p.o. alone, Example 9, Table 12, FIG. 13
  maximal % reversal of hyperalgesia: 14%
[4]; diclofenac sodium 6 mg/kg p.o. alone, Example 16, Table 19, FIG. 21
  maximal % reversal of mechanical hyperalgesia: 23%
[4]; diclofenac sodium 8 mg/kg p.o. alone, Example 1, Table 2, FIG. 2
  maximal % reversal of hyperalgesia: 39%

## CNCC[C@H](Oc1cccc2ccccc12)c1cccs1 [duloxetine hydrochloride]
[2]; duloxetine hydrochloride 3 mg/kg p.o. alone, 0.5-4 h post-dose, Example 7, Table 9, FIG. 10
  maximal % reversal of hyperalgesia: 23%
[2]; duloxetine hydrochloride 3 mg/kg p.o. alone, 0.5-4 h post-dose, Example 18, Table 21, FIG. 24
  maximal % reversal of hyperalgesia: 20%
[2]; duloxetine hydrochloride 3 mg/kg p.o. alone, 1, 2 & 4 h post-dose, Example 13, Table 16, FIG. 17
  maximal % reversal of hyperalgesia: 17%
[2]; duloxetine hydrochloride 10 mg/kg p.o. alone, Example 7, Table 10, FIG. 11
  maximal % reversal of hyperalgesia: 35%

## Cc1cnc(NC(=O)C2=C(O)c3ccccc3S(=O)(=O)N2C)s1 [meloxicam]
[4]; meloxicam 0.5 mg/kg p.o. alone, Example 4, Table 6, FIG. 6
  maximal % reversal of hyperalgesia: 21%
[4]; meloxicam 0.5 mg/kg p.o. alone, Example 11, Table 14, FIG. 15
  maximal % reversal of hyperalgesia: 19%

## CC(=O)Nc1ccc(O)cc1 [paracetamol]
[4]; paracetamol 60 mg/kg p.o. alone, Example 5, Table 7, FIG. 7
  maximal % reversal of hyperalgesia: 28%
[4]; paracetamol 60 mg/kg p.o. alone, Example 12, Table 15, FIG. 16
  maximal % reversal of hyperalgesia: 17%

## CC(C)C[C@H](CN)CC(=O)O [pregabalin]
[3]; pregabalin 1 mg/kg p.o. alone
  maximal % reversal of hyperalgesia: 14%
[5]; pregabalin 1 mg/kg p.o. alone
  maximal % reversal of hyperalgesia: 20%

## COc1c(O[C@@H]2O[C@H](CO)[C@@H](O)[C@H](O)[C@H]2O)cc2c(c1OC)-c1ccc(SC)c(=O)cc1[C@@H](NC(C)=O)CC2 [thiocolchicoside]
[6]; thiocolchicoside 0.01 mg/kg alone, Example 6, FIG. 9
  motor deficits (rotarod): did not produce any motor deficits
[6]; thiocolchicoside 0.01 mg/kg alone, n=8, Example 14, FIG. 19
  motor deficits (rotarod): did not produce any motor deficits
[4]; thiocolchicoside 0.01 mg/kg p.o. alone, Example 6, Table 8, FIG. 8
  maximal % reversal of hyperalgesia: 15%
[4]; thiocolchicoside 0.01 mg/kg p.o. alone, Example 14, Table 17, FIG. 18
  maximal % reversal of hyperalgesia: 14%
